Activity calls are given as the source filed them. The calls are words filed in the database; no cut-off is given here.
Columns and labels:
[1] = tested on: ASPC1; test: Cytotoxicity against human AsPC1 cells after 72 hrs by MTT assay; assay type: functional, cell-based; settings: ASPC1, 72 h
[2] = tested on: ASPC1; test: Upregulation of p53 in human AsPC1 cells at 2 to 10 uM after 24 hrs by Western blot analysis; assay type: functional, cell-based
[3] = tested on: PANC-1; test: Cytotoxicity against human PANC1 cells after 72 hrs by MTT assay; assay type: functional, cell-based; settings: PANC-1, 72 h
[4] = tested on: MIA PaCa-2; test: Cytotoxicity against human MIAPaCa2 cells after 72 hrs by MTT assay; assay type: functional, cell-based; settings: MIA PaCa-2, 72 h
[5] = tested on: ASPC1; test: Ratio of ursolic acid IC50 to compound IC50 for human AsPC1 cells; assay type: functional
[6] = tested on: ASPC1; test: Cell cycle arrest in human AsPC1 cells assessed as G2/M phase cells at 8 uM after 24 hrs by flow cytometric analysis (reference value: 20.7%); assay type: functional
[7] = tested on: ASPC1; test: Cell cycle arrest in human AsPC1 cells assessed as G1 phase cells at 6 uM after 24 hrs by flow cytometric analysis (reference value: 25.4%); assay type: functional
[8] = tested on: ASPC1; test: Cell cycle arrest in human AsPC1 cells assessed as G2/M phase cells at 6 uM after 24 hrs by flow cytometric analysis (reference value: 20.7%); assay type: functional
[9] = tested on: ASPC1; test: Induction of apoptosis in human AsPC1 cells assessed as sub-G1 phase cells at 8 uM after 24 hrs by flow cytometric analysis (reference value: 1%); assay type: functional
[10] = tested on: MCF7; test: Cytotoxicity against human MCF7 cells after 72 hrs by MTT assay; assay type: functional, cell-based; settings: MCF7, 72 h
[11] = tested on: ASPC1; test: Cell cycle arrest in human AsPC1 cells assessed as G2/M phase cells at 2 uM after 24 hrs by flow cytometric analysis (reference value: 20.7%); assay type: functional
[12] = tested on: ASPC1; test: Downregulation of Mcl1 in human AsPC1 cells at 2 to 10 uM after 24 hrs by Western blot analysis; assay type: functional, cell-based
[13] = tested on: ASPC1; test: Upregulation of NOXA in human AsPC1 cells at 6 to 10 uM after 24 hrs by Western blot analysis; assay type: functional, cell-based
[14] = tested on: ASPC1; test: Cell cycle arrest in human AsPC1 cells assessed as S phase cells at 8 uM after 24 hrs by flow cytometric analysis (reference value: 12.6%); assay type: functional
[15] = tested on: ASPC1; test: Cell cycle arrest in human AsPC1 cells assessed as G1 phase cells at 2 uM after 24 hrs by flow cytometric analysis (reference value: 25.4%); assay type: functional
[16] = tested on: ASPC1; test: Cell cycle arrest in human AsPC1 cells assessed as S phase cells at 4 uM after 24 hrs by flow cytometric analysis (reference value: 12.6%); assay type: functional
[17] = tested on: ASPC1; test: Cell cycle arrest in human AsPC1 cells assessed as S phase cells at 6 uM after 24 hrs by flow cytometric analysis (reference value: 12.6%); assay type: functional
[18] = tested on: ASPC1; test: Induction of apoptosis in human AsPC1 cells assessed as sub-G1 phase cells at 4 uM after 24 hrs by flow cytometric analysis (reference value: 1%); assay type: functional
[19] = tested on: ASPC1; test: Upregulation of p21 in human AsPC1 cells at 6 to 10 uM after 24 hrs by Western blot analysis; assay type: functional, cell-based
[20] = tested on: HepG2; test: Cytotoxicity against human HepG2 cells after 72 hrs by MTT assay; assay type: functional, cell-based; settings: HepG2, 72 h
[21] = tested on: ASPC1; test: Induction of apoptosis in human AsPC1 cells assessed as sub-G1 phase cells at 6 uM after 24 hrs by flow cytometric analysis (reference value: 1%); assay type: functional
[22] = tested on: ASPC1; test: Cell cycle arrest in human AsPC1 cells assessed as G1 phase cells at 10 uM after 24 hrs by flow cytometric analysis (reference value: 25.4%); assay type: functional
[23] = tested on: ASPC1; test: Induction of apoptosis in human AsPC1 cells assessed as sub-G1 phase cells at 2 uM after 24 hrs by flow cytometric analysis (reference value: 1%); assay type: functional
[24] = tested on: ASPC1; test: Cell cycle arrest in human AsPC1 cells assessed as S phase cells at 10 uM after 24 hrs by flow cytometric analysis (reference value: 12.6%); assay type: functional
[25] = tested on: ASPC1; test: Cell cycle arrest in human AsPC1 cells assessed as G1 phase cells at 8 uM after 24 hrs by flow cytometric analysis (reference value: 25.4%); assay type: functional
[26] = tested on: ASPC1; test: Cell cycle arrest in human AsPC1 cells assessed as G2/M phase cells at 10 uM after 24 hrs by flow cytometric analysis (reference value: 20.7%); assay type: functional
[27] = tested on: ASPC1; test: Induction of apoptosis in human AsPC1 cells assessed as sub-G1 phase cells at 10 uM after 24 hrs by flow cytometric analysis (reference value: 1%); assay type: functional
[28] = tested on: PC-3; test: Cytotoxicity against human PC3 cells after 72 hrs by MTT assay; assay type: functional, cell-based; settings: PC-3, 72 h
[29] = tested on: ASPC1; test: Cell cycle arrest in human AsPC1 cells assessed as G2/M phase cells at 4 uM after 24 hrs by flow cytometric analysis (reference value: 20.7%); assay type: functional
[30] = tested on: ASPC1; test: Cell cycle arrest in human AsPC1 cells assessed as S phase cells at 2 uM after 24 hrs by flow cytometric analysis (reference value: 12.6%); assay type: functional
[31] = tested on: A549; test: Cytotoxicity against human A549 cells after 72 hrs by MTT assay; assay type: functional, cell-based; settings: A549, 72 h
[32] = tested on: ASPC1; test: Cell cycle arrest in human AsPC1 cells assessed as G1 phase cells at 4 uM after 24 hrs by flow cytometric analysis (reference value: 25.4%); assay type: functional

COC(=O)[C@]12CC[C@@H](C)[C@H](C)[C@H]1C1=CC[C@@H]3[C@@]4(C)C/C(=C/n5cnnc5)C(=O)C(C)(C)[C@@H]4CC[C@@]3(C)[C@]1(C)CC2
IC50 [1]: 1900 nM | Activity [2]: Active | IC50 [3]: 3.5 µM | IC50 [4]: 4 µM | Ratio IC50 [5]: 7 | Activity [6]: 23.4% | Activity [7]: 36.6% | Activity [8]: 24.1% | Activity [9]: 3.4% | IC50 [10]: 2300 nM | Activity [11]: 14.9% | Activity [12]: inactive | Activity [13]: Active | Activity [14]: 10.1% | Activity [15]: 23.9% | Activity [16]: 9.6% | Activity [17]: 9.5% | Activity [18]: 0.5% | Activity [19]: Active | IC50 [20]: 3.2 µM | Activity [21]: 1.2% | Activity [22]: 27.3% | Activity [23]: 0.7% | Activity [24]: 10.5% | Activity [25]: 31.9% | Activity [26]: 28.8% | Activity [27]: 13.2% | IC50 [28]: 3000 nM | Activity [29]: 14.7% | Activity [30]: 9.1% | IC50 [31]: 4.9 µM | Activity [32]: 27.9%

Source: ChEMBL document CHEMBL2146453, “Synthesis of novel ursolic acid heterocyclic derivatives with improved abilities of antiproliferation and induction of p53, p21waf1 and NOXA in pancreatic cancer cells” (Bioorg Med Chem, 2012)
